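These data come from cells grown in 96-well plates and exposed to compound for 48 hours at five concentrations. GI50 = concentration required for 50% inhibition of growth. The concentration for full growth arrest is given as TGI.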

Test systems include SNB-19 CNS; OVCAR-8 ovarian; UO-31 renal; K-562 leukemia; SK-MEL-5 melanoma; SNB-75 CNS; SK-MEL-2 melanoma; T-47D breast; NCI-H226 lung; M14 melanoma.
Test in all cases: NCI tumour cell line growth inhibition, 48 h

For `OCc1ccc(N2CCCC2c2ccccc2)cc1Cl` (stereo not given), the GI50 was 13.5 µM in the test with SNB-19 CNS; 8.18 µM in the test on OVCAR-8 ovarian; 9.28 µM in the test on UO-31 renal; 2.33 µM in the test on K-562 leukemia; 3.33 µM in the test with SK-MEL-5 melanoma; 3.28 µM with SNB-75 CNS. Also, the GI50 with SK-MEL-2 melanoma is 2.31 µM; in the test on T-47D breast, 0.358 µM; in the test with NCI-H226 lung, 0.126 µM; with M14 melanoma, 5.24 µM. The TGI with SNB-19 CNS was greater than 84 µM; in the test on OVCAR-8 ovarian, 30.3 µM; with UO-31 renal, 27.4 µM; in the test on K-562 leukemia, 10.6 µM; in the test with SK-MEL-5 melanoma, 9.36 µM; with SNB-75 CNS it was 29 µM. For the same compound, the TGI worked out at 6.97 µM with SK-MEL-2 melanoma, 4.71 µM with T-47D breast, 0.325 µM in the test with NCI-H226 lung and 21.3 µM in the test with M14 melanoma.

Regarding `CCOC(=O)C1=C(C)N(c2ccc(Cl)cc2)[C@]2(C#N)C(O)=C(Cl)C(Cl)=C(O)[C@]12C#N`, the GI50 in the test on SNB-19 CNS is greater than 100 µM; with OVCAR-8 ovarian it was greater than 100 µM; in the test with UO-31 renal, 53.8 µM; with K-562 leukemia, 21.5 µM; with SK-MEL-5 melanoma, greater than 100 µM; in the test on SNB-75 CNS it was 26.1 µM. Further, the GI50 is greater than 100 µM in the test with SK-MEL-2 melanoma, 16.9 µM in the test with T-47D breast, greater than 100 µM in the test with NCI-H226 lung and 49.7 µM with M14 melanoma. In addition, the TGI was greater than 100 µM in the test on SNB-19 CNS; greater than 100 µM in the test on OVCAR-8 ovarian; greater than 100 µM in the test with UO-31 renal; greater than 100 µM in the test with K-562 leukemia; greater than 100 µM in the test on SK-MEL-5 melanoma; 83 µM with SNB-75 CNS. In addition, the TGI was greater than 100 µM in the test with SK-MEL-2 melanoma, 81 µM with T-47D breast, greater than 100 µM in the test on NCI-H226 lung and greater than 100 µM in the test on M14 melanoma.

With `COc1ccc(-c2cc(-c3ccc(C)cc3)nc3nc(=S)[nH]c(N)c23)cc1`, the GI50 in the test with SNB-19 CNS was 37.6 µM; in the test on OVCAR-8 ovarian, 21.5 µM; with UO-31 renal, 19.2 µM; in the test with K-562 leukemia, 15.1 µM; in the test with SK-MEL-5 melanoma, 14.1 µM; with SNB-75 CNS, 66.2 µM. In addition, the GI50 in the test with SK-MEL-2 melanoma was 19 µM; in the test with T-47D breast, 14.8 µM; in the test on NCI-H226 lung it was 17.5 µM; in the test with M14 melanoma it was 19.1 µM. Moreover, the TGI in the test on SNB-19 CNS is greater than 100 µM; in the test with OVCAR-8 ovarian it was 86.4 µM; in the test on UO-31 renal, 48 µM; with K-562 leukemia, 36.5 µM; with SK-MEL-5 melanoma, 29.6 µM; with SNB-75 CNS, greater than 100 µM. Also, the TGI came out at 41 µM in the test on SK-MEL-2 melanoma, 97.5 µM in the test with T-47D breast, 41.7 µM with NCI-H226 lung and 37.4 µM in the test on M14 melanoma.

In the case of `CC(=O)/C=C/c1cn(C(=O)OC(C)(C)C)c2ccc(Br)cc12`, the GI50 with SNB-19 CNS was 15.4 µM; in the test on OVCAR-8 ovarian, 16.2 µM; with UO-31 renal, 10.3 µM; in the test on K-562 leukemia it was 18 µM; in the test with SK-MEL-5 melanoma it was 13.6 µM; with SNB-75 CNS, 14.4 µM. In addition, the GI50 with SK-MEL-2 melanoma was 20.9 µM; in the test with T-47D breast it was 17.4 µM; with NCI-H226 lung it was 11.7 µM; in the test with M14 melanoma, 30.1 µM. Moreover, the TGI was 30.1 µM in the test with SNB-19 CNS; 39 µM in the test on OVCAR-8 ovarian; 51.9 µM with UO-31 renal; greater than 54 µM in the test on K-562 leukemia; 32.9 µM in the test on SK-MEL-5 melanoma; 39.3 µM in the test on SNB-75 CNS. The TGI in the test with SK-MEL-2 melanoma is 54.6 µM; in the test on T-47D breast it was 54.4 µM; with NCI-H226 lung it was 28.7 µM; with M14 melanoma, greater than 100 µM.

Consider `CCOc1ccccc1C(=O)N1CCN(c2cc(Cl)cc(Cl)c2)CC1`, for which the GI50 with SNB-19 CNS was 0.0432 µM; with OVCAR-8 ovarian, 0.0371 µM; in the test on UO-31 renal it was 0.0978 µM; with K-562 leukemia, 0.0286 µM; with SK-MEL-5 melanoma, 0.0345 µM; in the test with SNB-75 CNS, 0.474 µM. The GI50 in the test with SK-MEL-2 melanoma was 1.13 µM; in the test on T-47D breast, 0.393 µM; with NCI-H226 lung it was 0.839 µM; in the test on M14 melanoma it was 0.0293 µM. Besides, the TGI with SNB-19 CNS was 15.8 µM; in the test on OVCAR-8 ovarian, 14.2 µM; in the test with UO-31 renal, 16 µM; with K-562 leukemia it was 25.8 µM; in the test on SK-MEL-5 melanoma, 0.177 µM; in the test on SNB-75 CNS, 14.3 µM. The TGI is 18.4 µM with SK-MEL-2 melanoma, 29.9 µM in the test on T-47D breast, 6.55 µM in the test with NCI-H226 lung and 1.72 µM in the test with M14 melanoma.

These data come from PubChem BioAssay (NCI).
